Test results reported in US8772500B2, “TRPV3 modulators” (AbbVie Inc., priority 2011, dated 2014).

What was measured:
[1] = molecular target: T1, human TRPV3 (Homo sapiens, UniProt Q8NET8); experiment: In vitro antagonism of recombinant human TRPV3 activation (FLIPR Tetra calcium assay, 2-APB as agonist); assay type: cell-based; settings: HEK293 cells stably expressing human TRPV3; 2-APB 80 μM; range class; read-out: IC50 (reported range)
T1 construct: expressed in transfected cells
T1 sequence (Q8NET8 1-790): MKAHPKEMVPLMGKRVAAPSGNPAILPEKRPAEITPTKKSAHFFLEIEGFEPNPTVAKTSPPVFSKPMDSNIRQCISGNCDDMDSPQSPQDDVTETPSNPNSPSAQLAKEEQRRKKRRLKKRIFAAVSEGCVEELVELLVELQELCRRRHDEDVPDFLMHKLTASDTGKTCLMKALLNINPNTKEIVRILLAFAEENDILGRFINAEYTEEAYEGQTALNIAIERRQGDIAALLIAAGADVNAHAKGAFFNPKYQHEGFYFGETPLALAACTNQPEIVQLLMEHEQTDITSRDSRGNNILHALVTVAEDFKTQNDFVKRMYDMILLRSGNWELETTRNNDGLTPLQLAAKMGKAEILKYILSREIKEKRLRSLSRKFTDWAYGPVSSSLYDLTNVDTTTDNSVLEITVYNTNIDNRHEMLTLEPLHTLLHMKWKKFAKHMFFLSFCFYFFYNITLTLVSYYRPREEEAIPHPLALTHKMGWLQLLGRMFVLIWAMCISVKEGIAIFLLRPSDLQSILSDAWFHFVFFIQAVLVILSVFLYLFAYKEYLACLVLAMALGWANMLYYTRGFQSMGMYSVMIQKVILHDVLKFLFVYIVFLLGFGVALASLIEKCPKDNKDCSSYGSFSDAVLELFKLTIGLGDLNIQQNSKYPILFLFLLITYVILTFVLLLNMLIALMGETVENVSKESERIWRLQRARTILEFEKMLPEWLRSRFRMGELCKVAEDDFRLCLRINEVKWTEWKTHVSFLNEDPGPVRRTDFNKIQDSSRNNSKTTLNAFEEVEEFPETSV
Experimental: Test compounds were evaluated for ability to antagonize the activation of recombinant human TRPV3 using FLIPR® Tetra cellular screening. Specifically, on the day prior to the experiment recombinant HEK293 cells that stably express human TRPV3 were removed from tissue culture flasks and plated in growth medium at 20,000 cells/well into Poly-d-lysine coated black/clear 384-well Plate (Corning, 3845) using a Multidrop® dispenser (ThermoScientific, Waltham, Mass.). Prior to the start of the assay, the medium was removed by aspiration, and cells were loaded with 30 μL no-wash FLIPR® Calcium-4 dye (λEX=470-495 nm, λEM=515-575 nm; Molecular Devices, Sunnyvale, Calif.). The cells were then incubated for 90-120 minutes in the dark prior to addition of the test compound.
A double-addition protocol was used. The test compound (i.e., the TRPV3 antagonist) was added at the 10 second time point, followed by the addition of a TRPV3 agonist three minutes later. Each test compound evaluated was first dissolved in DMSO to prepare a 10 mM stock solution. A solution (5×) of the test compound was then prepared in DPBS (Dulbecco's Phosphate Buffered Saline) and 10 μL of that solution was added to the cells at a delivery rate of 40 μL/sec. The TRPV3 agonist used to activate human TRPV3 expressed by the […] was 2-aminoethoxy-diphenyl borate (2-APB; Tocris Cookson, Ellisville, Mo.) at 80 μM. Final assay volume was 50 μL. Total length of an experimental run was 10 minutes.
Changes in fluorescence were measured over time using the FLIPR® instrument. The intensity of the fluorescence was captured and digitally transferred to an interfaced computer. The maximum response minus minimum response was calculated and expressed as the percentage of the maximum 2-APB response in the absence of antagonist. The concentration of 2-APB corresponds to its EC80.
Table 1 reports the IC50 values measured for the test compounds as human TRPV3 antagonists. […] Actual measured values are shown parenthetically after the reported range. In most cases, the values reported are average values from at least two runs (i.e., n≧2).

[2] = In vitro rat microsomal stability assay; assay type: in vitro ADME, rat (Sprague-Dawley); settings: Sprague-Dawley, rat, 0.5 h, 0.5 μM, pH 7.4
Experimental: (§1) Test compounds were evaluated for metabolic stability in an in vitro rat microsomal stability assay using rat (Sprague-Dawley, from BD Biosciences) liver microsomes and/or an in vitro human microsomal stability assay using human (Xenotech) liver microsomes. […] Incubations were carried out at 37° C. with a final incubation volume of 135 μL. […] A 1.5 μL aliquot of reduced nicotine adenine disphosphonucleotide (NADPH) (Chem-Impex Int'L Inc., Lot 12532024) was also added to the time-zero plates.

[3] = In vitro human microsomal stability assay; assay type: in vitro ADME; settings: human, 0.5 h, 0.5 μM, pH 7.4
Experimental: as §1

IC50 [1]	RAT MICROSOMAL STABILITY (% REMAINING AFTER 30 MINUTES) [2]	HUMAN MICROSOMAL STABILITY (% REMAINING AFTER 30 MINUTES) [3]	SMILES
1.1 to 5 µM			OC(c1ccccn1)C1(c2ccc(Cl)cc2)CCOCC1 (stereo not drawn) [Example 64, [4-(4-chlorophenyl)tetrahydro-2H-pyran-4-yl](pyridin-2-yl)methanol]
5.1 to 20 µM			CC(c1ccccc1F)C1(C(O)c2ccccn2)CCC1 (stereo not drawn) [Example 48, {1-[1-(2-fluorophenyl)ethyl]cyclobutyl}(pyridin-2-yl)methanol]
1.1 to 5 µM			NC1CCCC1C(O)C1(c2ccccc2OC(F)(F)F)CCC1 (stereo not drawn) [Example 214, (2-aminocyclopentyl){1-[2-(trifluoromethoxy)phenyl]cyclobutyl}methanol]
1.1 to 5 µM			N[C@H]1CCC[C@H]1[C@@H](O)C1(c2ccc(Cl)c(Cl)c2)CCC1 [Example 218, (R)-[(1R,2S)-2-aminocyclopentyl][1-(3,4-dichlorophenyl)cyclobutyl]-methanol]
1.1 to 5 µM			OC(CC1(c2ccc(Cl)c(Cl)c2)CCC1)c1ccccn1 (stereo not drawn) [Example 73, 2-[1-(3,4-dichlorophenyl)cyclobutyl]-1-(pyridin-2-yl)ethanol]
1.1 to 5 µM			OC(c1ncccn1)C1(c2ccc(OC(F)(F)F)cc2)CCC1 (stereo not drawn) [Example 31, pyrimidin-2-yl{1-[4-(trifluoromethoxy)phenyl]cyclobutyl}methanol]
0.501 to 1 µM			NC1CCCC1C(O)C1(c2ccc(Cl)c(Cl)c2)CCC1 (stereo not drawn) [Example 215, (2-aminocyclopentyl) [1-(3,4-dichlorophenyl)cyclobutyl]methanol]
5.1 to 20 µM			OC(c1ncccn1)C1(c2ccc(F)c(F)c2)CCC1 (stereo not drawn) [Example 35, [1-(3,4-difluorophenyl)cyclobutyl](pyrimidin-2-yl)methanol]
1.1 to 5 µM			OC(CC1(c2ccc(Cl)cc2)CCC1)c1ccccn1 (stereo not drawn) [Example 69, 2-[1-(4-chlorophenyl)cyclobutyl]-1-(pyridin-2-yl)ethanol]
1.1 to 5 µM			NC1CCCCC1C(O)C1(c2ccc(OC(F)(F)F)cc2)CCC1 (stereo not drawn) [Example 209, (2-aminocyclohexyl){1-[4-(trifluoromethoxy)phenyl]cyclobutyl}methanol]
5.1 to 20 µM			OC(c1ccccn1)C1(c2ccc(F)cc2)CCOCC1 (stereo not drawn) [Example 62, [4-(4-fluorophenyl)tetrahydro-2H-pyran-4-yl](pyridin-2-yl)methanol]
1.1 to 5 µM			CC(c1ccc(C(F)(F)F)cc1)C1(C(O)c2ccccn2)CCC1 (stereo not drawn) [Example 53, pyridin-2-yl(1-{1-[4-(trifluoromethyl)phenyl]ethyl}cyclobutyl)methanol]
5.1 to 20 µM			NC1CCCCC1C(O)C1(c2ccc(Cl)c(Cl)c2)CCC1 (stereo not drawn) [Example 211, (2-aminocyclohexyl) [1-(3,4-dichlorophenyl)cyclobutyl]methanol]
1.1 to 5 µM			OC(CC1(c2ccccc2)CCC1)c1ccccn1 (stereo not drawn) [Example 68, 2-(1-phenylcyclobutyl)-1-(pyridin-2-yl)ethanol]
1.1 to 5 µM			OC(c1ccccn1)C1(c2ccc(C(F)(F)F)cc2)CCOCC1 (stereo not drawn) [Example 65, pyridin-2-yl{4-[4-(trifluoromethyl)phenyl]tetrahydro-2H-pyran-4-yl}-methanol]
5.1 to 20 µM			OC(CC1(c2ccc(F)cc2)CCC1)c1ccccn1 (stereo not drawn) [Example 70, 2-[1-(4-fluorophenyl)cyclobutyl]-1-(pyridin-2-yl)ethanol]

IC50 [1]	RAT MICROSOMAL STABILITY (% REMAINING AFTER 30 MINUTES) [2]	HUMAN MICROSOMAL STABILITY (% REMAINING AFTER 30 MINUTES) [3]	SMILES
1.1 to 5 µM			N[C@H]1CCC[C@@H]1[C@H](O)C1(c2ccc(Cl)c(Cl)c2)CCC1 [Example 219, (S)-[(1S,2S)-2-aminocyclopentyl][1-(3,4-dichlorophenyl)cyclobutyl]-methanol]
1.1 to 5 µM			NC1CCCCC1C(O)C1(c2ccc(C(F)(F)F)cc2)CCC1 (stereo not drawn) [Example 207, (2-aminocyclohexyl){1-[4-(trifluoromethyl)phenyl]cyclobutyl}methanol]
1.1 to 5 µM			OC(c1ccccn1)C1(c2ccc(C(F)(F)F)cc2)CCOC1 (stereo not drawn) [Example 78, pyridin-2-yl{3-[4-(trifluoromethyl)phenyl]tetrahydrofuran-3-yl}methanol]
1.1 to 5 µM			OC(CC1(c2cccc(Cl)c2)CCC1)c1ccccn1 (stereo not drawn) [Example 72, 2-[1-(3-chlorophenyl)cyclobutyl]-1-(pyridin-2-yl)ethanol]
5.1 to 20 µM			CC(c1cccc(Cl)c1)C1(C(O)c2ccccn2)CCC1 (stereo not drawn) [Example 44, {1-[1-(3-chlorophenyl)ethyl]cyclobutyl}(pyridin-2-yl)methanol]
5.1 to 20 µM			OC(c1ccccn1)C1(c2ccc(F)c(F)c2)CCOCC1 (stereo not drawn) [Example 63, [4-(3,4-difluorophenyl)tetrahydro-2H-pyran-4-yl](pyridin-2-yl)methanol]
5.1 to 20 µM			OC(c1ncccn1)C1(c2cccc(F)c2)CCC1 (stereo not drawn) [Example 33, [1-(3-fluorophenyl)cyclobutyl](pyrimidin-2-yl)methanol]
	0.072%	57%	OC(c1ccccn1)C1(C2CCOCC2)CCC1 (stereo not drawn) [Example 239, pyridin-2-yl[1-(tetrahydro-2H-pyran-4-yl)cyclobutyl]methanol]
	<0.01%	0.16%	OC(C1CCCc2cccnc21)C1(c2cccc(OC(F)(F)F)c2)CCC1 (stereo not drawn) [Example 188, (syn)-5,6,7,8-tetrahydroquinolin-8-yl{1-[3-(trifluoromethoxy)phenyl]-cyclobutyl}methanol]
	79%	>85%	OC(c1ccccn1)C1(c2ccc(C(F)(F)F)cc2)CCNCC1 (stereo not drawn) [Example 147, pyridin-2-yl{4-[4-(trifluoromethyl)phenyl]piperidin-4-yl}methanol]
	81%	80%	OC(c1ccccn1)C1(c2cccnc2)CCC1 (stereo not drawn) [Example 20, pyridin-2-yl(1-pyridin-3-ylcyclobutyl)methanol]
	>85%	>85%	OC1CC(c2ccc(C(F)(F)F)cc2)([C@@H](O)c2ccccn2)C1 (mixture of isomers) [Example 199, 3-[(R)-hydroxy(pyridin-2-yl)methyl]-3-[4-(trifluoromethyl)phenyl]-cyclobutanol]
	<0.01%	<0.01%	OC(C1CCCc2cccnc21)C1(c2ccc(Cl)c(Cl)c2)CCC1 (single isomer, unassigned) [Example 182, (syn)-[1-(3,4-dichlorophenyl)cyclobutyl][5,6,7,8-tetrahydroquinolin-8-yl]-methanol]
	<0.01%	0.26%	OC(C1CCc2cccnc21)C1(c2ccccc2C(F)(F)F)CCC1 (stereo not drawn) [Example 197, (anti)-6,7-dihydro-5H-cyclopenta[b]pyridin-7-yl{1-[2-(trifluoromethyl)-phenyl]cyclobutyl}methanol]
	<0.01%	9.2%	OC(C1CCCc2cccnc21)C1(c2ccc(OC(F)(F)F)cc2)CCC1 (single isomer, unassigned) [Example 178, (syn)-5,6,7,8-tetrahydroquinolin-8-yl{1-[4-(trifluoromethoxy)phenyl]-cyclobutyl}methanol]
